Assay results taken from patent US10501518B2 (priority 2013, dated 2019).
pEC50: −log10 of the molar value. Read-outs that look alike come from different tables or passages of the source. Starred links: 1 amine or outer side, 2 acyl side, 3 side chain; linkers in the order of their positions; H or OH if unused. Non-standard residues stand in square brackets, D forms with d. Residues, ends and D or L forms follow the SMILES beside them. *: point of attachment. NH(1S,2S-2-CONH2-cPent) = NC(=O)[C@H]1CCC[C@@H]1N*; X12 = O=C([C@H]1CCC[C@@H]1N[*:1])[*:2]; X13 = O=C([C@H]1CNC[C@@H]1N[*:1])[*:2]; ACPC(1S,2S) = N[C@H]1CCC[C@@H]1C(=O)*; Aib = CC(C)(N)C(=O)O

What was measured:
WT human PTHR-1 = target: T1, WT human PTHR-1 (Homo sapiens, UniProt Q03431); assay: cAMP GloSensor dose-response in GP-2.3 cells expressing human PTHR-1; format: cell-based; conditions: for cAMP (hPTHR-1) Max: Table 1, luminescence counts per second relative to PTH(1-34); for cAMP (hPTHR-1) Max / Max: 12-16 minutes after ligand addition; for Max: Table 6, GP-2.3 cells, mean ± SEM
T1 construct: bioactivity of the resulting compound in full-length hPTHR-1 and a truncated version; expressed in transfected cells
T1 sequence (Q03431 27-593): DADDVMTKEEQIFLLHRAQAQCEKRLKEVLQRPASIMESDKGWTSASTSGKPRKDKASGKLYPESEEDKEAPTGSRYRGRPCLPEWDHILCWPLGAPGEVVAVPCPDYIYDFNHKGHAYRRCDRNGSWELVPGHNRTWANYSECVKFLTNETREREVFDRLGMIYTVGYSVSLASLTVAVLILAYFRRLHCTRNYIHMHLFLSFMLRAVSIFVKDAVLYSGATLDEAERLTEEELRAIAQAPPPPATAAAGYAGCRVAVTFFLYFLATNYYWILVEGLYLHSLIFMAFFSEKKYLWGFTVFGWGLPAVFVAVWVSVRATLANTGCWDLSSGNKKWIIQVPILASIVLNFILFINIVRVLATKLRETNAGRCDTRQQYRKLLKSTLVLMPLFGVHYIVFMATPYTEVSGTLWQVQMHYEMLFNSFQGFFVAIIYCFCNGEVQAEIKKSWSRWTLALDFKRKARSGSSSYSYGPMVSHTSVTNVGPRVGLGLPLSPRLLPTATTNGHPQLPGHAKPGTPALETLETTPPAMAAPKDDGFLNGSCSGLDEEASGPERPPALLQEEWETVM
Procedure: FIGS. 8A, 8B, and 8C constitute a series of graphs depicting cAMP responses in GP-2.3 cells expressing wild-type human parathyroid hormone receptor 1 (PTHR-1-WT). […] Data are means (±SEM) of n>4 experiments, each performed in duplicate.
(§1) For cAMP dose-response assays, monolayers of confluent HEK 293 cells were pre-incubated with buffer containing d-luciferin (0.5 mM) in 96 well plates at room temperature until a stable baseline level of luminescence was established (30 min). Varying concentrations of agonist were then added, and the time course of luminescence response was recorded using a Perkin Elmer plate reader following α/β-peptide addition.

WT rat PTHR-1 = target: T2, WT rat PTHR-1 (Rattus norvegicus, UniProt P25961); assay: cAMP GloSensor dose-response in GR-35 cells expressing rat PTHR-1; format: cell-based; conditions: Table 7; GR-35 cells, 12-16 minutes after ligand addition; mean ± SEM
T2 construct: expressed in transfected cells
T2 sequence (P25961 27-591): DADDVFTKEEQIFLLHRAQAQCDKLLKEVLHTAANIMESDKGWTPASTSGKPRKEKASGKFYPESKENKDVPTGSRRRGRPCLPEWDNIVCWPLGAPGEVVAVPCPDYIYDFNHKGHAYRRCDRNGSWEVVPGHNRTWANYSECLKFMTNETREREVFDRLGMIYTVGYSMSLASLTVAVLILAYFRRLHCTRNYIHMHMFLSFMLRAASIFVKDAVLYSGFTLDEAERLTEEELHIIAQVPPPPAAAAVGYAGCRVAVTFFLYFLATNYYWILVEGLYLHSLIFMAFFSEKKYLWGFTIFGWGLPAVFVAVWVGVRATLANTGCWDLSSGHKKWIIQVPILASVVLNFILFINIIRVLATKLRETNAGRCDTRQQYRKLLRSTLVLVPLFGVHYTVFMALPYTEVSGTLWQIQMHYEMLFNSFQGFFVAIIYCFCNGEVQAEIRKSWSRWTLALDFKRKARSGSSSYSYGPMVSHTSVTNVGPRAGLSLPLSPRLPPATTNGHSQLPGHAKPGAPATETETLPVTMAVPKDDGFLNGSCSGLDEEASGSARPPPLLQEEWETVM
Procedure: FIGS. 9A, 9B, and 9C constitute a series of graphs depicting cAMP responses in GR-35 cells expressing rat PTHR-1-WT. […] Data are means (±SEM) of n>4 experiments, each performed in duplicate.
as §1

Structure (SMILES) | cAMP (hPTHR-1) Max (WT human PTHR-1) | Max (WT human PTHR-1) | Max (WT rat PTHR-1) | pEC50 (WT human PTHR-1; read-out: cAMP EC50) | further results
CC[C@H](C)[C@H](NC(=O)[C@H](CCC(=O)O)NC(=O)[C@H](CO)NC(=O)[C@@H](NC(=O)[C@@H](N)CO)C(C)C)C(=O)N[C@@H](CCC(N)=O)C(=O)N[C@@H](CC(C)C)C(=O)N[C@@H](CCSC)C(=O)N[C@@H](Cc1c[nH]cn1)C(=O)N[C@@H](CC(N)=O)C(=O)N[C@@H](CC(C)C)C(=O)NCC(=O)N[C@@H](CCCCN)C(=O)N[C@@H](Cc1c[nH]cn1)C(=O)N[C@@H](CC(C)C)C(=O)N[C@@H](CC(N)=O)C(=O)N[C@@H](CO)C(=O)N[C@@H](CCSC)C(=O)N[C@@H](CCC(=O)O)C(=O)N[C@@H](CCCNC(=N)N)C(=O)N[C@H](C(=O)N[C@@H](CCC(=O)O)C(=O)N[C@H](CC(=O)N[C@@H](CC(C)C)C(=O)N[C@@H](CCCNC(=N)N)C(=O)N[C@@H](CCCCN)C(=O)N[C@@H](CCCCN)CC(=O)N[C@@H](CC(C)C)C(=O)N[C@@H](CCC(N)=O)C(=O)N[C@@H](CC(=O)O)C(=O)N[C@H](CC(=O)N[C@@H](Cc1c[nH]cn1)C(=O)N[C@@H](CC(N)=O)C(=O)N[C@@H](Cc1ccccc1)C(N)=O)C(C)C)Cc1c[nH]c2ccccc12)C(C)C [A3] | 1.07 | 232 ± 15 luminescence counts per second × 10^−3 | 74 ± 101 luminescence counts per second × 10−3 |  | agonist activity at hPTHR-1 (cAMP response), in words (WT human PTHR-1; maximum cAMP response compared with PTH(1-34)): full agonists of hPTHR-1
CC[C@H](C)[C@H](NC(=O)[C@H](CCC(=O)O)NC(=O)[C@H](CO)NC(=O)[C@@H](NC(=O)[C@@H](N)CO)C(C)C)C(=O)N[C@@H](CCC(N)=O)C(=O)N[C@@H](CC(C)C)C(=O)N[C@@H](CCSC)C(=O)N[C@@H](Cc1c[nH]cn1)C(=O)N[C@@H](CC(N)=O)C(=O)N[C@@H](CC(C)C)C(=O)NCC(=O)N[C@@H](CCCCN)C(=O)N[C@@H](Cc1c[nH]cn1)C(=O)N[C@H](CC(=O)N[C@@H](CC(N)=O)C(=O)N[C@@H](CO)C(=O)N[C@@H](CCSC)C(=O)N[C@@H](CCC(=O)O)CC(=O)N[C@@H](CCCNC(=N)N)C(=O)N[C@H](C(=O)N[C@@H](CCC(=O)O)C(=O)N[C@H](CC(=O)N[C@@H](CC(C)C)C(=O)N[C@@H](CCCNC(=N)N)C(=O)N[C@@H](CCCCN)C(=O)N[C@@H](CCCCN)CC(=O)N[C@@H](CC(C)C)C(=O)N[C@@H](CCC(N)=O)C(=O)N[C@@H](CC(=O)O)C(=O)N[C@H](CC(=O)N[C@@H](Cc1c[nH]cn1)C(=O)N[C@@H](CC(N)=O)C(=O)N[C@@H](Cc1ccccc1)C(N)=O)C(C)C)Cc1c[nH]c2ccccc12)C(C)C)CC(C)C [A5] | 1.12 | 244 ± 32 luminescence counts per second × 10^−3 | 54 ± 26 luminescence counts per second × 10−3 |  | pEC50 (WT human PTHR-1): 8.78
CC[C@H](C)[C@H](NC(=O)[C@H]1CCC[C@@H]1NC(=O)[C@H](CO)NC(=O)[C@@H](NC(=O)[C@@H](N)CO)C(C)C)C(=O)N[C@@H](CCC(N)=O)C(=O)N[C@@H](CC(C)C)C(=O)N[C@@H](CCSC)C(=O)N[C@@H](Cc1c[nH]cn1)C(=O)N[C@@H](CC(N)=O)C(=O)N[C@@H](CC(C)C)C(=O)NCC(=O)N[C@@H](CCCCN)C(=O)N[C@@H](Cc1c[nH]cn1)C(=O)N[C@@H](CC(C)C)C(=O)N[C@@H](CC(N)=O)C(=O)N[C@@H](CO)C(=O)N[C@@H](CCSC)C(=O)N[C@@H](CCC(=O)O)C(=O)N[C@@H](CCCNC(=N)N)C(=O)N[C@H](C(=O)N[C@@H](CCC(=O)O)C(=O)N[C@@H](Cc1c[nH]c2ccccc12)C(=O)N[C@@H](CC(C)C)C(=O)N[C@@H](CCCNC(=N)N)C(=O)N[C@@H](CCCCN)C(=O)N[C@@H](CCCCN)C(=O)N[C@@H](CC(C)C)C(=O)N[C@@H](CCC(N)=O)C(=O)N[C@@H](CC(=O)O)C(=O)N[C@H](C(=O)N[C@@H](Cc1c[nH]cn1)C(=O)N[C@@H](CC(N)=O)C(=O)N[C@@H](Cc1ccccc1)C(N)=O)C(C)C)C(C)C [ACPC(4)] (H-SVS[X12]IQLMHNLGKHLNSMERVEWLRKKLQDVHNF-NH2; N-terminus assumed) |  |  |  |  | hPTHR1 EC50, nM (Means ± SEM) (WT human PTHR-1; Table 8, cAMP-inducing potency, N-terminal modifications): No activity
CC[C@H](C)[C@H](NC(=O)[C@H](CO)NC(=O)[C@H](CCCCN)NC(=O)CNC(=O)[C@H](CCCCN)NC(=O)[C@H](CC(=O)O)NC(=O)[C@H](Cc1c[nH]cn1)NC(=O)[C@H](CC(C)C)NC(=O)[C@H]1CCC[C@@H]1NC(=O)[C@H](CCC(N)=O)NC(=O)[C@H]1CCC[C@@H]1NC(=O)[C@H](CCC(=O)O)NC(=O)[C@H](CO)NC(=O)[C@@H](NC(=O)[C@H]1CCC[C@@H]1N)C(C)C)C(=O)N[C@@H](CCC(N)=O)C(=O)N[C@@H](CC(=O)O)C(=O)N[C@@H](CC(C)C)C(=O)N[C@@H](CCCNC(=N)N)C(=O)N[C@@H](CCCNC(=N)N)C(=O)N[C@@H](CCCNC(=N)N)C(=O)N[C@@H](CCC(=O)O)C(=O)N[C@@H](CC(C)C)C(=O)N[C@@H](CC(C)C)C(=O)N[C@@H](CCC(=O)O)C(=O)N[C@@H](CCCCN)C(=O)N[C@@H](CC(C)C)C(=O)N[C@@H](CC(C)C)C(=O)NC(C)(C)C(=O)N[C@@H](CCCCN)C(=O)N[C@@H](CC(C)C)C(=O)N[C@@H](Cc1c[nH]cn1)C(=O)N[C@H](C(=O)N[C@@H](C)C(N)=O)[C@@H](C)O [BA058 ACPC(1,5,7), XVSEXQXLHDKGKSIQDLRRRELLEKLLUKLHTA-NH2] ({ACPC(1S,2S)}-VSE[X12]Q[X12]LHDKGKSIQDLRRRELLEKLL[Aib]KLHTA-NH2; N-terminus assumed) |  |  |  | 9.59 | 
CC[C@H](C)[C@H](NC(=O)[C@H]1CCC[C@@H]1NC(=O)[C@H](CCCCN)NC(=O)CNC(=O)[C@H](CCCCN)NC(=O)[C@H](CC(=O)O)NC(=O)[C@H](Cc1cnc[nH]1)NC(=O)[C@H](CC(C)C)NC(=O)[C@H]1CCC[C@@H]1NC(=O)[C@H](CCC(N)=O)NC(=O)[C@H]1CCC[C@@H]1NC(=O)[C@H](CCC(=O)O)NC(=O)[C@H](CO)NC(=O)[C@@H](NC(=O)[C@H]1CCC[C@@H]1N)C(C)C)C(=O)N[C@@H](CCC(N)=O)C(=O)N[C@@H](CC(=O)O)C(=O)N[C@H]1CCC[C@@H]1C(=O)N[C@@H](CCCNC(=N)N)C(=O)N[C@@H](CCCNC(=N)N)C(=O)N[C@@H](CCCNC(=N)N)C(=O)N[C@H]1CNC[C@@H]1C(=O)N[C@@H](CC(C)C)C(=O)N[C@@H](CC(C)C)C(=O)N[C@@H](CCC(=O)O)C(=O)N[C@H]1CNC[C@@H]1C(=O)N[C@@H](CC(C)C)C(=O)N[C@@H](CC(C)C)C(=O)NC(C)(C)C(=O)N[C@H]1CCC[C@@H]1C(=O)N[C@@H](CC(C)C)C(=O)N[C@@H](Cc1cnc[nH]1)C(=O)N[C@H](C(=O)N[C@H]1CCC[C@@H]1C(N)=O)[C@@H](C)O [CycD6 BA058 ACPC(1,5,7), XVSEXQXLHDKGKXIQDXRRRZLLEZLLUXLHTX-NH2] ({ACPC(1S,2S)}-VSE[X12]Q[X12]LHDKGK[X12]IQD[X12]RRR[X13]LLE[X13]LL[Aib][X12]LHT-{NH(1S,2S-2-CONH2-cPent)}) |  |  |  | 9.19 | 
